Values joined by “and” are separate entries in the source; they are usually repeats but may differ in a detail not shown here. Equal entries are not always repeated.
Conditions: for surface tension liquid-gas: Drop volume; for viscosity / speed of sound / mass density: Liquid; for viscosity: Capillary tube (Ostwald / Ubbelohde) method; for speed of sound: Frequency=3 MHz, Single path-length method; for mass density: Vibrating tube method

OCc1cccs1 [2-thiophenemethanol]
Conditions | surface tension liquid-gas [mN/m]
283.15 K | 45.2
285.65 K | 44.93
288.15 K | 44.61
290.65 K | 44.39
293.15 K | 44.13
295.65 K | 43.83
298.15 K | 43.56
300.65 K | 43.29
303.15 K | 43.04
305.65 K | 42.78
308.15 K | 42.54
310.65 K | 42.27
313.15 K | 41.96

Conditions | mass density | speed of sound [m/s] | viscosity [mPa·s]
283.15 K, 100 kPa | 1215.5 kg/m3 | 1545.7 | 13.16
283.15 K, 2000 kPa | 1216.47 kg/m3 | – | –
283.15 K, 5000 kPa | 1217.99 kg/m3 | – | –
283.15 K, 7000 kPa | 1218.98 kg/m3 | – | –
283.15 K, 10000 kPa | 1220.46 kg/m3 | – | –
283.15 K, 15000 kPa | 1222.87 kg/m3 | – | –
283.15 K, 20000 kPa | 1225.22 kg/m3 | – | –
283.15 K, 25000 kPa | 1227.52 kg/m3 | – | –
283.15 K, 30000 kPa | 1229.77 kg/m3 | – | –
283.15 K, 35000 kPa | 1231.96 kg/m3 | – | –
283.15 K, 40000 kPa | 1234.11 kg/m3 | – | –
283.15 K, 45000 kPa | 1236.21 kg/m3 | – | –
283.15 K, 50000 kPa | 1238.27 kg/m3 | – | –
283.15 K, 55000 kPa | 1240.29 kg/m3 | – | –
283.15 K, 60000 kPa | 1242.27 kg/m3 | – | –
283.15 K, 65000 kPa | 1244.21 kg/m3 | – | –
285.65 K, 100 kPa | 1213.3 kg/m3 | 1538.2 | 11.81
288.15 K, 100 kPa | 1211.11 kg/m3 and 1211.08 kg/m3 | 1530.8 | 10.6
288.15 K, 2000 kPa | 1212.1 kg/m3 | – | –
288.15 K, 5000 kPa | 1213.64 kg/m3 | – | –
288.15 K, 7000 kPa | 1214.66 kg/m3 | – | –
288.15 K, 10000 kPa | 1216.16 kg/m3 | – | –
288.15 K, 15000 kPa | 1218.62 kg/m3 | – | –
288.15 K, 20000 kPa | 1221.01 kg/m3 | – | –
288.15 K, 25000 kPa | 1223.35 kg/m3 | – | –
288.15 K, 30000 kPa | 1225.64 kg/m3 | – | –
288.15 K, 35000 kPa | 1227.87 kg/m3 | – | –
288.15 K, 40000 kPa | 1230.06 kg/m3 | – | –
288.15 K, 45000 kPa | 1232.19 kg/m3 | – | –
288.15 K, 50000 kPa | 1234.29 kg/m3 | – | –
288.15 K, 55000 kPa | 1236.34 kg/m3 | – | –
288.15 K, 60000 kPa | 1238.35 kg/m3 | – | –
288.15 K, 65000 kPa | 1240.32 kg/m3 | – | –
290.65 K, 100 kPa | 1208.87 kg/m3 | 1523.4 | 9.578
293.15 K, 100 kPa | 1206.69 kg/m3 and 1206.66 kg/m3 | 1516 | 8.703
293.15 K, 2000 kPa | 1207.7 kg/m3 | – | –
293.15 K, 5000 kPa | 1209.28 kg/m3 | – | –
293.15 K, 7000 kPa | 1210.32 kg/m3 | – | –
293.15 K, 10000 kPa | 1211.85 kg/m3 | – | –
293.15 K, 15000 kPa | 1214.36 kg/m3 | – | –
293.15 K, 20000 kPa | 1216.8 kg/m3 | – | –
293.15 K, 25000 kPa | 1219.18 kg/m3 | – | –
293.15 K, 30000 kPa | 1221.5 kg/m3 | – | –
293.15 K, 35000 kPa | 1223.78 kg/m3 | – | –
293.15 K, 40000 kPa | 1226 kg/m3 | – | –
293.15 K, 45000 kPa | 1228.17 kg/m3 | – | –
293.15 K, 50000 kPa | 1230.29 kg/m3 | – | –
293.15 K, 55000 kPa | 1232.38 kg/m3 | – | –
293.15 K, 60000 kPa | 1234.42 kg/m3 | – | –
293.15 K, 65000 kPa | 1236.41 kg/m3 | – | –
295.65 K, 100 kPa | 1204.45 kg/m3 | 1508.6 | 7.913
298.15 K, 100 kPa | 1202.27 kg/m3 and 1202.23 kg/m3 | 1501.2 | 7.23
298.15 K, 2000 kPa | 1203.3 kg/m3 | – | –
298.15 K, 5000 kPa | 1204.91 kg/m3 | – | –
298.15 K, 7000 kPa | 1205.97 kg/m3 | – | –
298.15 K, 10000 kPa | 1207.53 kg/m3 | – | –
298.15 K, 15000 kPa | 1210.08 kg/m3 | – | –
298.15 K, 20000 kPa | 1212.57 kg/m3 | – | –
298.15 K, 25000 kPa | 1215 kg/m3 | – | –
298.15 K, 30000 kPa | 1217.36 kg/m3 | – | –
298.15 K, 35000 kPa | 1219.67 kg/m3 | – | –
298.15 K, 40000 kPa | 1221.93 kg/m3 | – | –
298.15 K, 45000 kPa | 1224.14 kg/m3 | – | –
298.15 K, 50000 kPa | 1226.3 kg/m3 | – | –
298.15 K, 55000 kPa | 1228.41 kg/m3 | – | –
298.15 K, 60000 kPa | 1230.48 kg/m3 | – | –
298.15 K, 65000 kPa | 1232.51 kg/m3 | – | –
300.65 K, 100 kPa | 1200.01 kg/m3 | 1493.9 | 6.607
303.15 K, 100 kPa | 1197.82 kg/m3 and 1197.79 kg/m3 | 1486.6 | 6.079
303.15 K, 2000 kPa | 1198.88 kg/m3 | – | –
303.15 K, 5000 kPa | 1200.52 kg/m3 | – | –
303.15 K, 7000 kPa | 1201.6 kg/m3 | – | –
303.15 K, 10000 kPa | 1203.2 kg/m3 | – | –
303.15 K, 15000 kPa | 1205.8 kg/m3 | – | –
303.15 K, 20000 kPa | 1208.33 kg/m3 | – | –
303.15 K, 25000 kPa | 1210.8 kg/m3 | – | –
303.15 K, 30000 kPa | 1213.21 kg/m3 | – | –
303.15 K, 35000 kPa | 1215.57 kg/m3 | – | –
303.15 K, 40000 kPa | 1217.86 kg/m3 | – | –
303.15 K, 45000 kPa | 1220.11 kg/m3 | – | –
303.15 K, 50000 kPa | 1222.3 kg/m3 | – | –
303.15 K, 55000 kPa | 1224.45 kg/m3 | – | –
303.15 K, 60000 kPa | 1226.55 kg/m3 | – | –
303.15 K, 65000 kPa | 1228.61 kg/m3 | – | –
305.65 K, 100 kPa | 1195.57 kg/m3 | 1479.3 | 5.609
308.15 K, 100 kPa | 1193.36 kg/m3 and 1193.34 kg/m3 | 1472 | 5.18
308.15 K, 2000 kPa | 1194.44 kg/m3 | – | –
308.15 K, 5000 kPa | 1196.12 kg/m3 | – | –
308.15 K, 7000 kPa | 1197.22 kg/m3 | – | –
308.15 K, 10000 kPa | 1198.85 kg/m3 | – | –
308.15 K, 15000 kPa | 1201.5 kg/m3 | – | –
308.15 K, 20000 kPa | 1204.09 kg/m3 | – | –
308.15 K, 25000 kPa | 1206.61 kg/m3 | – | –
308.15 K, 30000 kPa | 1209.06 kg/m3 | – | –
308.15 K, 35000 kPa | 1211.45 kg/m3 | – | –
308.15 K, 40000 kPa | 1213.79 kg/m3 | – | –
308.15 K, 45000 kPa | 1216.07 kg/m3 | – | –
308.15 K, 50000 kPa | 1218.3 kg/m3 | – | –
308.15 K, 55000 kPa | 1220.48 kg/m3 | – | –
308.15 K, 60000 kPa | 1222.62 kg/m3 | – | –
308.15 K, 65000 kPa | 1224.71 kg/m3 | – | –
310.65 K, 100 kPa | 1191.11 kg/m3 | 1464.8 | 4.795
313.15 K, 100 kPa | 1188.89 kg/m3 and 1188.87 kg/m3 | 1457.6 | 4.455
313.15 K, 2000 kPa | 1189.99 kg/m3 | – | –
313.15 K, 5000 kPa | 1191.7 kg/m3 | – | –
313.15 K, 7000 kPa | 1192.83 kg/m3 | – | –
313.15 K, 10000 kPa | 1194.49 kg/m3 | – | –
313.15 K, 15000 kPa | 1197.2 kg/m3 | – | –
313.15 K, 20000 kPa | 1199.83 kg/m3 | – | –
313.15 K, 25000 kPa | 1202.4 kg/m3 | – | –
313.15 K, 30000 kPa | 1204.9 kg/m3 | – | –
313.15 K, 35000 kPa | 1207.33 kg/m3 | – | –
313.15 K, 40000 kPa | 1209.71 kg/m3 | – | –
313.15 K, 45000 kPa | 1212.03 kg/m3 | – | –
313.15 K, 50000 kPa | 1214.3 kg/m3 | – | –
